In general, IC50 refers to the concentration that inhibits the measured activity by half. A higher IC50 goes with weaker potency.

Results on 16 compounds are retold here after ChEMBL document CHEMBL5550182, “Exploring the interaction of N-(benzothiazol-2-yl)pyrrolamide DNA gyrase inhibitors with the GyrB ATP-binding site lipophilic floor: A medicinal chemistry and QTAIM study” (Bioorg Med Chem, 2024).

The assay addresses DNA gyrase (Escherichia coli, UniProt P0AES4+P0AES6). Put plainly: Inhibition of Escherichia coli DNA gyrase supercoiling using relaxed pNO1 as substrate measured after 30 mins by SybrGOLD staining based fluorescence analysis. The assay is classed as protein-complex assay.
`CC(=O)Nc1ccc2c(c1)s/c(=N\C(=O)c1[nH]c(C)c(Cl)c1Cl)n2Cc1ccccc1` came in with an IC50 of 5800 nM. That is a single-digit micromolar value.
In the case of `Cc1[nH]c(C(=O)N(CCc2ccccc2)c2nc3ccc(NC(=O)C(=O)O)cc3s2)c(Cl)c1Cl` it was 2200 nM; in that of `Cc1[nH]c(C(=O)N(Cc2ccccc2)c2nc3ccc(NC(=O)C(=O)O)cc3s2)c(Cl)c1Cl`, 43 nM; in that of `Cc1[nH]c(C(=O)/N=c2\sc3cc(NC(=O)C(=O)O)ccc3n2CCc2ccccc2)c(Cl)c1Cl`, 100 nM.
Regarding `Cc1[nH]c(C(=O)/N=c2\sc3cc(NC(=O)C(=O)O)ccc3n2Cc2ccccc2)c(Cl)c1Cl`, the IC50 was 18 nM.
In the case of `CC(=O)Nc1ccc2nc(N(Cc3ccc(C(=O)O)cc3)C(=O)c3[nH]c(C)c(Cl)c3Cl)sc2c1` it was 35000 nM; in that of `CC(=O)Nc1ccc2c(c1)s/c(=N\C(=O)c1[nH]c(C)c(Cl)c1Cl)n2CCc1ccccc1`, 620 nM.
As for `CC(=O)Nc1ccc2c(c1)s/c(=N\C(=O)c1[nH]c(C)c(Cl)c1Cl)n2Cc1ccc(C(=O)O)cc1`, the figure is 600 nM; as for `Cc1[nH]c(C(=O)/N=c2\sc3cc(NC(=O)C(=O)O)ccc3n2Cc2cccc(C(=O)O)c2)c(Cl)c1Cl`, 13 nM; as for `CC(=O)Nc1ccc2nc(N(CCc3ccccc3)C(=O)c3[nH]c(C)c(Cl)c3Cl)sc2c1`, 162000 nM.
In the case of `Cc1[nH]c(C(=O)N(Cc2ccc(C(=O)O)cc2)c2nc3ccc(NC(=O)C(=O)O)cc3s2)c(Cl)c1Cl` it was 1000 nM; in that of `Cc1[nH]c(C(=O)/N=c2\sc3cc(NC(=O)C(=O)O)ccc3n2Cc2ccc(C(=O)O)cc2)c(Cl)c1Cl`, 320 nM.
On to `CC(=O)Nc1ccc2c(c1)s/c(=N\C(=O)c1[nH]c(C)c(Cl)c1Cl)n2Cc1cccc(C(=O)O)c1`, for which inhibition was half-maximal at 100 nM (IC50).
In turn, `Cc1[nH]c(C(=O)N(Cc2cccc(C(=O)O)c2)c2nc3ccc(NC(=O)C(=O)O)cc3s2)c(Cl)c1Cl` gave an IC50 of 2800 nM.
`CC(=O)Nc1ccc2nc(N(Cc3cccc(C(=O)O)c3)C(=O)c3[nH]c(C)c(Cl)c3Cl)sc2c1` returned an IC50 of 54000 nM.
Regarding `CC(=O)Nc1ccc2nc(N(Cc3ccccc3)C(=O)c3[nH]c(C)c(Cl)c3Cl)sc2c1`, the IC50 worked out at 90000 nM.
